# pEC50: −log10 of the molar value. Counter-ions that a name gives are not always drawn. Like-named read-outs stand apart in the source and are kept apart here.
# Columns and labels:
# Assay type in all cases: cell-based, human
# TFK1 cells = assay: Cell viability assay (CellTiter-Glo, 72 h), GI50; settings: TFK1 sgPFKL-1 and sgPFKL-2 versus sgNC, Supplementary Fig. 2d
# Protocol: Cell viability was assessed using the CellTiter-Glo luminescent cell viability assay (Vazyme, DD1101) following the manufacturer’s instructions. Briefly, 5000 cells per well were seeded into a 96-well white bottom permeable plate. Different concentrations of drugs were added to each well. After 72 h of treatment, a mixture of CellTier reagent and serum-free culture medium was prepared at a 1:1 ratio, and 100 μL of the mixture was added to each well. After incubation at 37 °C for 15 min, the luminescence was measured using a microplate reader (Synergy H1, Biotek). All the experiments were conducted in triplicate. Cell viability (relative luminescence) was defined as the luminescence of the drug treatment relative to that of the vehicle control.
# 1405R3 = assay: High-throughput drug screen, CellTiter-Glo viability, 72 h; design: AUC: scale not given here; settings: for AUC: area under the dose-response curve; for MIN: lower asymptote of fitted dose-response curve; for SLOPE: slope of fitted dose-response curve; for pEC50: 72 h, fitted dose-response curve, Min.Conc.tested 1, Max.Conc.tested 10000, read-out: EC50
# Summary of the method: (§1)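 Cholangiocarcinoma cells were seeded at 3000/well in 384-well plates and dosed after 24 h. Drugs were tested at 10, 1, 0.1, 0.01 and 0.001 μM in duplicate for 72 h, with viability read by CellTiter-Glo luminescence.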
# 783C-6 = assay: as above; design: AUC: scale not given here; settings: for AUC: area under the dose-response curve; for pEC50: 72 h, read-out: EC50
# Summary of the method: as §1
# [1] = 1405R3 DSRT analysis, drug sensitivity score
# [2] = 783C-6 cells, DSS of DSRT analysis
# [3] = 783C-6 cells, minimum of dose-response curve
# [4] = 783C-6 cells, slope of fitted dose-response curve
# [5] = Homo sapiens, 1405R3 DSRT analysis, CellTiter-Glo viability, GI50
# [6] = 783C-6 cells, DSRT analysis, CellTiter-Glo viability, concentrations tested 1 to 10000 (unit inferred), GI50
# [7] = 783C-6 DSRT analysis, DSS calculated from the dose-response curve
# [8] = 783C-6 DSRT analysis, MIN of the fitted dose-response curve
# [9] = 1405R3 DSRT analysis, CellTiter-Glo
# [10] = 783C-6 DSRT analysis, CellTiter-Glo viability, fitted dose-response curve, Min.Conc.tested 1, Max.Conc.tested 10000
# [11] = 783C-6 DSRT analysis, slope of the fitted dose-response curve
Compound,AUC (1405R3; 1405R3 DSRT analysis),DSS (1405R3; [1]),MIN (1405R3; 1405R3 DSRT analysis),DSS (783C-6; [2]),AUC (783C-6; 783C-6 cells),MIN (783C-6; [3]),SLOPE (1405R3; 1405R3 DSRT analysis),SLOPE (783C-6; [4]),further results
C[C@@H]1NC(=O)[C@H]2CCCN2C(=O)[C@H](CCCCCC(=O)[C@@H]2CO2)NC(=O)[C@@H](C)NC1=O [HC-Toxin],–,–,–,–,–,–,–,–,effect of PFKL knockout on drug efficacy (cell viability) (TFK1 cells): significantly inhibited drug efficacy
COc1cccc2c1c(O)c(C(=O)N(C)c1ccc(C(F)(F)F)cc1)c(=O)n2C [Tasquinimod],0.1,0,100,0,1.7,96,–,–,–
CCN(c1cc(-c2ccc(CN3CCOCC3)cc2)cc(C(=O)NCc2c(C)cc(C)[nH]c2=O)c1C)C1CCOCC1 [Tazemetostat],12.2,0,92.1,0,14.4,90.7,–,–,–
CCCCCCCCCCCCCC(=S)NCCCC[C@H](NC(=O)OCc1ccccc1)C(=O)Nc1ccccc1 [Thiomyristoyl],18.7,0,87.9,0,2.1,92.9,-0.1,-1,–
Cn1c(CCCCCCC(=O)NO)nc2cc(N(CCCl)CCCl)ccc21 [Tinostamustine],56,6.3,10,7.1,62.6,3.7,–,–,pEC50 (1405R3; [5]): 5.62; pEC50 (783C-6; Homo sapiens): 5.65
Cc1cc(Nc2cc(N3CCN(C)CC3)nc(Sc3ccc(NC(=O)C4CC4)cc3)n2)[nH]n1 [Tozasertib],19.9,–,76.4,4.1,41.4,78.1,–,–,DSS (1405R3): 1.8
O=C(CCCCCCC(=O)Nc1ccc([C@H]2O[C@@H](CSc3nc(-c4ccccc4)c(-c4ccccc4)o3)C[C@@H](c3ccc(CO)cc3)O2)cc1)NO [Tubacin],41.9,0,73.1,0,7.2,76.2,–,–,–
CN1CCc2c(c3ccccc3n2Cc2ccc(C(=O)NO)cc2)C1.Cl [Tubastatin A HCl],3.3,0,94.8,0,2.4,92.1,-0.5,-1,–
CN1CCc2c(c3ccccc3n2Cc2ccc(C(=O)NO)cc2)C1.O=C(O)C(F)(F)F [Tubastatin A TFA],17.4,0,88.8,0,24.4,86.5,-0.1,-0.1,–
CN1CCc2c(c3ccccc3n2Cc2ccc(C(=O)NO)cc2)C1 [Tubastatin A],8.2,0,92.6,0,3.2,92.9,–,–,–
Nc1cc(F)ccc1NC(=O)c1ccc(CNC(=O)/C=C/c2cccnc2)cc1 [Tucidinostat],73.3,7,44,6.5,59.3,25.1,–,–,pEC50 (1405R3; [5]): 6.22; pEC50 (783C-6; Homo sapiens): 5.78
CCCCNNC(=O)c1ccc(Br)cc1 [UF010],21.1,2,67.1,2.1,22.5,74.9,-2.5,-2.4,"pEC50 (1405R3; 1405R3 DSRT analysis, CellTiter-Glo viability, GI50): 5.64; pEC50 (783C-6; [6]): 5.89"
COc1cc2nc(N3CCCC3)nc(NCCCCCN3CCCC3)c2cc1OC [UNC0379],39.7,1.9,76.2,3.2,30.1,55.3,-0.4,-2.5,–
COc1cc2c(NC3CCN(C(C)C)CC3)nc(C3CCCCC3)nc2cc1OCCCN1CCCC1 [UNC0638],19.7,1.9,59.1,2,21.3,73.8,–,–,pEC50 (1405R3; [5]): 5.47; pEC50 (783C-6; Homo sapiens): 5.81
COc1cc2c(NC3CCN(C(C)C)CC3)nc(N3CCC(F)(F)CC3)nc2cc1OCCCN1CCCC1 [UNC0642],0.1,0,99.3,0,7.2,94,–,–,–
CCCC(CCC)C(=O)O [Valproic acid sodium salt],8.4,0,92.2,0,4.4,85.4,–,–,–
CCCC(CCC)C(=O)O [Valproic acid],18.4,0,88.1,0,4.4,85.5,–,–,–
C[C@@H]1COC(Nc2ccc3ncnc(Nc4ccc(OCc5nccs5)c(Cl)c4)c3c2)=N1 [Varlitinib],11.5,0,91.8,1.5,22.8,79.7,–,–,–
O=C(NNS(=O)(=O)c1ccccc1F)c1cc(F)cc(-c2ccccn2)c1 [WM-1119],51.4,0,66.9,0,7.3,75.9,–,–,–
Cc1cc(-c2ccccc2)cc(C(=O)NNS(=O)(=O)c2cccc(O)c2)c1F [WM-3835],14.5,0,90.6,0,15.7,93.1,–,–,–
Cc1cc(-c2ccccc2)cc(C(=O)NNS(=O)(=O)c2ccccc2)c1F [WM-8014],16.3,0,89.5,0,5.5,81.8,-0.1,-1,–
CCC(=O)CCCCC[C@@H]1NC(=O)[C@H]2CCCCN2C(=O)[C@H]([C@@H](C)CC)NC(=O)[C@H](Cc2cn(OC)c3ccccc23)NC1=O [apicidin],–,–,–,–,–,–,–,–,effect of PFKL knockout on drug efficacy (cell viability) (TFK1 cells): significantly inhibited drug efficacy
"O=C(/C=C/c1cccc(S(=O)(=O)Nc2ccccc2)c1)NO [belinostat, reference compound]",121.5,–,0,–,–,–,–,–,"DSS (1405R3; 1405R3 DSRT analysis, DSS): 12.9; pEC50 (1405R3; Homo sapiens, 1405R3 DSRT analysis, CellTiter-Glo): 6.17; DSS (783C-6; [7]): 19; MIN (783C-6; [8]): 0.2; AUC (783C-6; 783C-6 DSRT analysis): 173.8; pEC50 (783C-6; Homo sapiens): 6.71; effect of PFKL knockout on drug efficacy (cell viability) (TFK1 cells): significantly inhibited drug efficacy"
(-)-Parthenolide,33.7,–,34.2,–,–,–,-2.5,–,"DSS (1405R3; 1405R3 DSRT analysis, DSS): 3.6; pEC50 (1405R3; [9]): 5.50; pEC50 (783C-6; [10]): 5.84; DSS (783C-6; [7]): 2.7; MIN (783C-6; [8]): 68.4; AUC (783C-6; 783C-6 DSRT analysis): 26.5; SLOPE (783C-6; [11]): -2.5"
AR-42,98.5,–,1.2,–,–,–,-1.5,–,"DSS (1405R3; 1405R3 DSRT analysis, DSS): 11; pEC50 (1405R3; [9]): 5.99; pEC50 (783C-6; [10]): 5.96; DSS (783C-6; [7]): 10.5; MIN (783C-6; [8]): 2.3; AUC (783C-6; 783C-6 DSRT analysis): 96.3; SLOPE (783C-6; [11]): -1.3"
AZD4547,4.8,–,88.1,–,–,–,–,–,"DSS (1405R3; 1405R3 DSRT analysis, DSS): 0; pEC50 (783C-6; [10]): 5.65; DSS (783C-6; [7]): 3.2; MIN (783C-6; [8]): 54.8; AUC (783C-6; 783C-6 DSRT analysis): 29.6"
NKL 22,6.3,0.2,83.7,0,3.5,92.5,-2.5,-2.5,–
OG-L002,0.1,0,100,0,3,94.7,-0.1,-0.5,–
TC-H 106,47,2.6,75.6,5.3,61.5,48.5,-0.4,-0.6,pEC50 (783C-6; [6]): 6.03

# From publication PMC12518634, “The noncanonical function of liver-type phosphofructokinase potentiates the efficacy of HDAC inhibitors in cancer” (Signal Transduction and Targeted Therapy, 2025)
